The term Kd denotes the equilibrium constant for the complex coming apart.

Assay [1] addresses T1, Retinoic acid receptor gamma (Homo sapiens, UniProt P13631).
T1 sequence (P13631 whole entry): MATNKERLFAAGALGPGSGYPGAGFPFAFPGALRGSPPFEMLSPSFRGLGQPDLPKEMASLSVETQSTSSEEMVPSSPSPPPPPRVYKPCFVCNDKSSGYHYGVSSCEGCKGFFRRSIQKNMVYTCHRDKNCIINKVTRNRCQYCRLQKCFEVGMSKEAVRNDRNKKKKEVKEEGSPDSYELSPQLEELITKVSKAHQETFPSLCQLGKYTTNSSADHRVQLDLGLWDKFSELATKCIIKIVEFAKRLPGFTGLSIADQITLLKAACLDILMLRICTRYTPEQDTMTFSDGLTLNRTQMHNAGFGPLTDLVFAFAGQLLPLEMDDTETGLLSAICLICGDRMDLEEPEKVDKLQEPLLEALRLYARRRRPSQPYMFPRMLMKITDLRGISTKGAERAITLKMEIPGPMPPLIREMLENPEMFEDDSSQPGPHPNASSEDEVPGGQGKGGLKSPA
The assay can be described thus: Dissociation constant for Retinoic acid receptor gamma; Not an active agonist. The assay is classed as functional.

Assay [2] deals with T2, Retinoic acid receptor RXR-alpha (Homo sapiens, UniProt P19793).
T2 sequence (P19793 whole entry): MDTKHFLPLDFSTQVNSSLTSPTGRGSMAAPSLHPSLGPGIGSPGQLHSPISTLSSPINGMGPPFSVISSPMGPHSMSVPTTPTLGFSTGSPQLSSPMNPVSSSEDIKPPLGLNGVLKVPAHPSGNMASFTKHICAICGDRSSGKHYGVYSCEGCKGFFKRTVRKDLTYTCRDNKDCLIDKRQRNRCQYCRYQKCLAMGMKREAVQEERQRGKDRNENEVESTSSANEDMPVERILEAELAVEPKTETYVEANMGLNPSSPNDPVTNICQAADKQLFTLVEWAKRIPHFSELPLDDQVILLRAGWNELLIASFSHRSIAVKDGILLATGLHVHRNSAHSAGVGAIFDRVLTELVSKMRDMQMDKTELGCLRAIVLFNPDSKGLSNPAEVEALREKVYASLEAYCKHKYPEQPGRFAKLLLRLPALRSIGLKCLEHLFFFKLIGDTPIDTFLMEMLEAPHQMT
Nature of the assay: Dissociation constant for Retinoid X receptor alpha.

For assay [3], the target named is T1, Retinoic acid receptor gamma.

Consider `Cc1cc2c(cc1-c1cc(/C=C3\SC(=O)NC3=O)ccc1OC(F)(F)F)C(C(C)C)=CCC2(C)C`, for which the dissociation constant Kd entry in assay [1] is on record as “Not Active”.
Turning to `C/C(=C\c1ccc(C(=O)O)cc1)c1cc2c(cc1C)C(C)(C)CCC2(C)C`, the equilibrium dissociation constant (Kd) is 0.032 µM in assay [2] and 0.645 µM in assay [3].

Source of the values: ChEMBL document CHEMBL1140438, “Ligand recognition by RAR and RXR receptors: binding and selectivity” (J Med Chem, 2005).
